# Experiments:
# [1] = tested on: genes associated with adipogenesis; assay: RT-PCR of adipogenesis related genes in 3T3L1; format: cell-based; conditions: 3T3L1, RT-PCR
# Description: Total RNA was isolated from the treated 3T3L1 cells by phenol-chloroform method. The isolated RNA samples were treated with 2 units/μL DNase I to remove any residual DNA followed by overnight ethanol precipitation at −80° C. RNA integrity was checked in 1% agarose gel. 2 μg RNA was used for cDNA synthesis using oligo dT primers. RT-PCR was done using primers of adipogenesis related genes followed by detection with SYBR Green.
# RT-PCR analysis was performed to show downregulation of genes associated with adipogenesis by compound of Formula I (FIG. 5). Error bars denote mean+/−SD of three biological replicates, one-way ANOVA with Dunnett's multiple comparison; * P<0.05, ** P<0.01, *** P<0.001, ns: not significant.
# full length p300 = biological target: T1, full length p300 (Homo sapiens, UniProt Q09472); assay: In vitro p300 acetylation assay (immunoblot); format: biochemical; conditions: same range of concentration (10, 15, 20 and 25 μM)
# T1 construct: Purified full length p300 protein was used for in vitro acetylation/butyrylation assay
# Description: Purified full length p300 protein was used for in vitro acetylation/butyrylation assay in presence/absence of different compounds. Acylation reactions were performed in reaction buffer (25 mM Tris-HCl PH 7.5, 100 mM NaCl, 0.1 mM EDTA, 1 mM DTT, 10% Glycerol, 1×PIC) with 100 ng/ml TSA, and 50 μM Butyryl-CoA/Acetyl COA. Xenopus histone H3 (500 ng) was used as the substrate and p300 (10,000 cpm activity) was used as the enzyme. Reactions were incubated in presence or absence of small molecule modulators (including compound of Formula I) for 10 minutes at 30° C., followed by initiation of the acetylation/butyrylation reaction by the addition of acetyl/butyryl CoA. After a further 10 minutes, reactions were stopped by addition of Laemmli buffer and samples were used for immunoblotting.
# Immunoblotting with antibodies against acetylated H3K18, acetylated H3K9 and pan-butyryl lysine was performed to check for the relative inhibition of acetyl transferase and butyryl transferase activities of full length p300 by garcinol, isogarcinol and its different derivatives including compound of Formula I at different concentrations. FIG. 2i depicts the effect of garcinol, isogarcinol and two of its derivatives LTK-13 and LTK-14 on p300 catalysed acetyltransferase activity. […] FIG. 2ii depicts the effect of LTK-14 on acetylation and butyrylation catalysed by p300. Lane 1, enzyme alone; Lane 2-4, enzyme+LTK-14 at concentrations 500 nM, 2 μM and 10 μM, respectively. LTK-14 could inhibit acetylation at 10 μM concentration while butyrylation was inhibited at 2 μM concentration. FIG. 2iii depicts the effect of compound x on acetylation and butyrylation catalysed by p300. Lane 1, enzyme alone; Lane 2, enzyme+DMSO; Lane 3-6, enzyme+compound x at concentrations 10, 15, 20 and 25 μM, respectively.
# [2] = tested on: genetically obese db/db mice; assay: Liver and adipose tissue of genetically obese db/db mice; format: in vivo
# Text: After the treatment of the mice with compound of Formula I for one month, the mice were sacrificed and their liver and epididymal fat pads were harvested. The organs were individually weighed and then processed for morphology study by hematoxylin and eosin staining.
# Average weights of liver (i) and adipose tissue (ii) of the mice of the three different groups are represented by bar graphs (FIG. 11); n=4 in each group:one-way ANOVA with Dunnett's multiple comparison; * P<0.05, ** P<0.01, *** P<0.001, ns: not significant. Representative images of morphology of adipose tissue (iii) and liver (iv) from the mice of the three groups, as studied by hematoxylin and eosin staining.
# [3] = Single dose toxicity study for maximum tolerated dose; format: in vivo
# Description: The single dose toxicity study on compound X was conducted in accordance with Good Laboratory Practice Principles as published by the OECD in 1998, in accordance with the Drugs and Cosmetics Rule (New Drugs and Clinical trials, 2019/DCGI). Compound X (formulated in vehicle i.e. 0.5% sodium salt of carboxymethyl cellulose) was administered to Sprague Dawley rats once by oral route on the day of scheduled treatment. The three treatment groups were 250 mg, 500 mg, and 1000 mg/kg body weight, while vehicle control was administered to control group. The rat equivalent doses were calculated from the dosage used in mice experiments following FDA guidelines for drug administration. The doses finally administered were 10, 20 and 40 times the corresponding mice equivalent dose. Food, but not water, was removed thus letting the animals fast over-night prior to dosing. […] Animals were subsequently observed once daily for any signs of toxicity, mortality, or any other observations including conditions of skin, hair coat, eyes, mucous membrane, movement, activity, tremors, convulsions, salivation, diarrhea, posture, piloerection and lethargy. Food intake, water intake and body weight of animals was recorded weekly. Terminal sacrifice of surviving animals was performed after 14 days using CO2 euthanasia technique following which animals were necropsied. Animals were fasted over night before necropsy. Gross observations were recorded.
# T1 sequence (Q09472 whole entry, species assumed): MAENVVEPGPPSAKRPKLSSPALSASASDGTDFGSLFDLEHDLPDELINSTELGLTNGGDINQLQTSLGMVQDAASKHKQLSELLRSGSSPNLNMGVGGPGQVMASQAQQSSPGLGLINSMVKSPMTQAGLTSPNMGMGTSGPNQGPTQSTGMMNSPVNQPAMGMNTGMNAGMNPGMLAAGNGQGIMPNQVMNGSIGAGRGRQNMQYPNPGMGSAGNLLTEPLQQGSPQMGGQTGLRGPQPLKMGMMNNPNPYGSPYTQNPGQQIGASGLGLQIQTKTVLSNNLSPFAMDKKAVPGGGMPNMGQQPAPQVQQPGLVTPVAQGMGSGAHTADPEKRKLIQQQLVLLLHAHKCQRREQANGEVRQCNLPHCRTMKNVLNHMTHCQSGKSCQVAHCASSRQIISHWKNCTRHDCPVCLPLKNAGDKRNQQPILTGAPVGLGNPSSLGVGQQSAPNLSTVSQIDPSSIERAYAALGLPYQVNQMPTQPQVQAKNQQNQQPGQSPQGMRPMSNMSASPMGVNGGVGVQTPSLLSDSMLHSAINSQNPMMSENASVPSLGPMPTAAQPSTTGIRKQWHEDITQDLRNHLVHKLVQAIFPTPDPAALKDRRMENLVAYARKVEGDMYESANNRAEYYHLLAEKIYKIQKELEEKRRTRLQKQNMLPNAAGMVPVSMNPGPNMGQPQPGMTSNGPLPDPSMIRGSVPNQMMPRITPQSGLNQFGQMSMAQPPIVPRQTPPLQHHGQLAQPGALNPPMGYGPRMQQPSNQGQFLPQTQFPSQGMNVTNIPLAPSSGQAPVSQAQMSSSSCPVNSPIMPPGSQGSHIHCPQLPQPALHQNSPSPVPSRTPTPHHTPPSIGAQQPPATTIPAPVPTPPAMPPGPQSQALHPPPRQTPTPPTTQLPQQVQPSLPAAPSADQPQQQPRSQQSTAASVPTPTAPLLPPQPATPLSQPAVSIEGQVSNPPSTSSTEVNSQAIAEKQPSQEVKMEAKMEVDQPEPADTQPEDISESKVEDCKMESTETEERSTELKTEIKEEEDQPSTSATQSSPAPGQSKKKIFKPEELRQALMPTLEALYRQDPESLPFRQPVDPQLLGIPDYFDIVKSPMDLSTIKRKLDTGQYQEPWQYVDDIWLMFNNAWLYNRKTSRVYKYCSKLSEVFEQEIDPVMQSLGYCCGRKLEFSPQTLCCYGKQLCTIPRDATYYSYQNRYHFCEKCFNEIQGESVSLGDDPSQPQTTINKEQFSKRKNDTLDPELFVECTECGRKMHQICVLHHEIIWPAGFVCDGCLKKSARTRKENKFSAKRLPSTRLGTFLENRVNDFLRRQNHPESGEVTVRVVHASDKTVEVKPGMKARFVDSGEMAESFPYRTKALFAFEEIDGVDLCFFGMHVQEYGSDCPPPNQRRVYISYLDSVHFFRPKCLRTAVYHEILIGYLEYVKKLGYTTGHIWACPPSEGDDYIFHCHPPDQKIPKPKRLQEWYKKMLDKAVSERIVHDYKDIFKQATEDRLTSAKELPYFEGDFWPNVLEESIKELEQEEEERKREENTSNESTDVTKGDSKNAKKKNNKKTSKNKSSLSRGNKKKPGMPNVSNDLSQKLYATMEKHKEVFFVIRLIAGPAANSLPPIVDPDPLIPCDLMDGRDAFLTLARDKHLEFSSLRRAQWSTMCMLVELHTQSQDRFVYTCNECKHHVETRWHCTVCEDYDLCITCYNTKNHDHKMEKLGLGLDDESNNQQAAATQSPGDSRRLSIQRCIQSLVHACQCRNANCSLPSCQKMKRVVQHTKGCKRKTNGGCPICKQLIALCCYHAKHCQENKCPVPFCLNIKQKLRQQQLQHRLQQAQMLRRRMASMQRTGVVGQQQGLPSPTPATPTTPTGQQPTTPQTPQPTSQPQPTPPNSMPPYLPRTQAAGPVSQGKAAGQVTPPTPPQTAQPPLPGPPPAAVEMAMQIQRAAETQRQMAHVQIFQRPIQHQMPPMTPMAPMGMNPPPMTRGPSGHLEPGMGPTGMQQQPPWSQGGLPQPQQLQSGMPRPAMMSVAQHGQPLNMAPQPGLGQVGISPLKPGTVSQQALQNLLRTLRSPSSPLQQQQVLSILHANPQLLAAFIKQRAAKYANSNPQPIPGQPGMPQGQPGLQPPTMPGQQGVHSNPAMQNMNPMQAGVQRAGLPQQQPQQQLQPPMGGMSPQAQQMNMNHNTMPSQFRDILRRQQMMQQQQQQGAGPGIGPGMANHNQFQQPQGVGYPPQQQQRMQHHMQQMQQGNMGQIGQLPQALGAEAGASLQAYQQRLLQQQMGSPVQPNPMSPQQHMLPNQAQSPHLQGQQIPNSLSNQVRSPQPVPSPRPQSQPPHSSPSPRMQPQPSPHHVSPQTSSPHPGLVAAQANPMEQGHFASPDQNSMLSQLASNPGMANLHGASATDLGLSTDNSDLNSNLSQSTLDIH
compound,measurement,setting,value
COc1ccc(C(=O)C2=C3OC(C)(C)[C@@H](CC=C(C)C)C[C@@]34C[C@@H](CC=C(C)C)C(C)(C)[C@@](CC=C(C)C)(C2=O)C4=O)cc1OC [Compound X],expression of genes associated with adipogenesis,[1],downregulation
same,effect on acetylation catalysed by p300,full length p300,without affecting acetylation
same,liver and epididymal fat pad weights,[2]; between db/db vehicle and db+/-,intermediate weights
same,symptoms of liver steatosis and adipose tissue hypertrophy,[2]; one month treatment,significantly reduced
same,gross morphological changes in organs,"[3]; 250, 500, 1000 mg/kg single oral dose, necropsy",no gross morphological changes in any organ
same,"Average food intake, Final","[3]; Female, 250 mg/Kg bw",16.65 gram/day/animal
same,"Average food intake, Initial","[3]; Female, 250 mg/Kg bw",20 gram/day/animal
same,"Average food intake, Middle","[3]; Female, 250 mg/Kg bw",16.32 gram/day/animal
same,"Average water intake, Final","[3]; Female, 250 mg/Kg bw",16.65 ml/day/animal
same,"Average water intake, Initial","[3]; Female, 250 mg/Kg bw",20 ml/day/animal
same,"Average water intake, Middle","[3]; Female, 250 mg/Kg bw",16.32 ml/day/animal
same,"Body weight, Final","[3]; Female, 250 mg/Kg bw",176.35 gram
same,"Body weight, Initial","[3]; Female, 250 mg/Kg bw",151.99 gram
same,"Body weight, Mid","[3]; Female, 250 mg/Kg bw",174.54 gram
same,"Average food intake, Final","[3]; Female, 500 mg/Kg bw",17.09 gram/day/animal
same,"Average food intake, Initial","[3]; Female, 500 mg/Kg bw",18.22 gram/day/animal
same,"Average food intake, Middle","[3]; Female, 500 mg/Kg bw",18.13 gram/day/animal
same,"Average water intake, Final","[3]; Female, 500 mg/Kg bw",17.09 ml/day/animal
same,"Average water intake, Initial","[3]; Female, 500 mg/Kg bw",18.22 ml/day/animal
same,"Average water intake, Middle","[3]; Female, 500 mg/Kg bw",18.13 ml/day/animal
same,"Body weight, Final","[3]; Female, 500 mg/Kg bw",175.8 gram
same,"Body weight, Initial","[3]; Female, 500 mg/Kg bw",153.32 gram
same,"Body weight, Mid","[3]; Female, 500 mg/Kg bw",176.55 gram
same,"Average food intake, Final","[3]; Female, 1000 mg/Kg bw",16.97 gram/day/animal
same,"Average food intake, Initial","[3]; Female, 1000 mg/Kg bw",18.17 gram/day/animal
same,"Average food intake, Middle","[3]; Female, 1000 mg/Kg bw",17.82 gram/day/animal
same,"Average water intake, Final","[3]; Female, 1000 mg/Kg bw",16.97 ml/day/animal
same,"Average water intake, Initial","[3]; Female, 1000 mg/Kg bw",18.17 ml/day/animal
same,"Average water intake, Middle","[3]; Female, 1000 mg/Kg bw",17.82 ml/day/animal
same,"Body weight, Final","[3]; Female, 1000 mg/Kg bw",179.52 gram
same,"Body weight, Initial","[3]; Female, 1000 mg/Kg bw",153.81 gram
same,"Body weight, Mid","[3]; Female, 1000 mg/Kg bw",178.58 gram
same,"Average food intake, Final","[3]; Male, 250 mg/Kg bw",22.62 gram/day/animal
same,"Average food intake, Initial","[3]; Male, 250 mg/Kg bw",20.03 gram/day/animal
same,"Average food intake, Middle","[3]; Male, 250 mg/Kg bw",20.79 gram/day/animal
same,"Average water intake, Final","[3]; Male, 250 mg/Kg bw",22.62 ml/day/animal
same,"Average water intake, Initial","[3]; Male, 250 mg/Kg bw",20.03 ml/day/animal
same,"Average water intake, Middle","[3]; Male, 250 mg/Kg bw",20.79 ml/day/animal
same,"Body weight, Final","[3]; Male, 250 mg/Kg bw",244.21 gram
same,"Body weight, Initial","[3]; Male, 250 mg/Kg bw",171.94 gram
same,"Body weight, Mid","[3]; Male, 250 mg/Kg bw",216.62 gram
same,"Average food intake, Final","[3]; Male, 500 mg/Kg bw",23.29 gram/day/animal
same,"Average food intake, Initial","[3]; Male, 500 mg/Kg bw",20.99 gram/day/animal
same,"Average food intake, Middle","[3]; Male, 500 mg/Kg bw",21.14 gram/day/animal
same,"Average water intake, Final","[3]; Male, 500 mg/Kg bw",23.29 ml/day/animal
same,"Average water intake, Initial","[3]; Male, 500 mg/Kg bw",20.99 ml/day/animal
same,"Average water intake, Middle","[3]; Male, 500 mg/Kg bw",21.14 ml/day/animal
same,"Body weight, Final","[3]; Male, 500 mg/Kg bw",243.14 gram
same,"Body weight, Initial","[3]; Male, 500 mg/Kg bw",176.3 gram
same,"Body weight, Mid","[3]; Male, 500 mg/Kg bw",229.75 gram
same,"Average food intake, Final","[3]; Male, 1000 mg/Kg bw",19.95 gram/day/animal
same,"Average food intake, Initial","[3]; Male, 1000 mg/Kg bw",20.76 gram/day/animal
same,"Average food intake, Middle","[3]; Male, 1000 mg/Kg bw",20.74 gram/day/animal
same,"Average water intake, Final","[3]; Male, 1000 mg/Kg bw",19.95 ml/day/animal
same,"Average water intake, Initial","[3]; Male, 1000 mg/Kg bw",20.76 ml/day/animal
same,"Average water intake, Middle","[3]; Male, 1000 mg/Kg bw",20.74 ml/day/animal
same,"Body weight, Final","[3]; Male, 1000 mg/Kg bw",226.19 gram
same,"Body weight, Initial","[3]; Male, 1000 mg/Kg bw",176.24 gram
same,"Body weight, Mid","[3]; Male, 1000 mg/Kg bw",217.65 gram
same,effect on food and water consumption,"[3]; both gender, all three doses vs vehicle control",no significant treatment related effect
